{"source": "patent US20080267905A1", "about": "“Methods and Compositions Using Selective Cytokine Inhibitory Drugs for Treatment and Management of Cancers and Other Diseases” (CELGENE CORPORATION, priority 2004, published 2008)", "key": {"TNF-α production": {"tested_on": "TNF-α production", "assay": "Inhibition of TNF-α production following LPS-stimulation of human PBMC and human whole blood (in vitro cytokine studies)", "format": "cell-based", "conditions": "compared with thalidomide", "excerpt": "In a specific embodiment, the pharmacological properties of 3-(3,4-dimethoxy-phenyl)-3-(1-oxo-1,3-dihydro-isoindol-2-yl)-propionamide are characterized in in vitro studies. Studies examine the effects of the compound on the production of various cytokines. Inhibition of TNF-α production following LPS-stimulation of human PBMC and human whole blood by the compound is investigated in vitro. […] The pharmacological effects of 3-(3,4-dimethoxy-phenyl)-3-(1-oxo-1,3-dihydro-isoindol-2-yl)-propionamide may derive from its action as an inhibitor of the generation of inflammatory cytokines."}, "[1]": {"assay": "Cardiovascular and respiratory function in anesthetized dogs", "format": "in vivo", "conditions": "anesthetized Beagle dogs", "protocol": "The effects of 3-(3,4-dimethoxy-phenyl)-3-(1-oxo-1,3-dihydro-isoindol-2-yl)-propionamide on cardiovascular and respiratory function are investigated in anesthetized dogs. Two groups of Beagle dogs (2/sex/group) are used. One group receives three doses of vehicle only and the other receives three ascending doses of the compound (200, 400, and 800 mg/kg). In all cases, doses of the compound or vehicle are successively administered via infusion through the jugular vein separated by intervals of at least 30 minutes."}}, "data": [{"compound": "COc1ccc(C(CC(N)=O)N2Cc3ccccc3C2=O)cc1OC", "note": "(stereo not drawn) [3-(3,4-dimethoxy-phenyl)-3-(1-oxo-1,3-dihydro-isoindol-2-yl)-propionamide]", "values": [{"measurement": "pharmacological activity profile, potency relative to thalidomide", "setting": "TNF-α production", "value": "five to fifty times more potent than thalidomide"}, {"measurement": "cardiovascular and respiratory changes", "setting": "[1]; all doses (200, 400, and 800 mg/kg), infusion through the jugular vein, compared to vehicle control group", "value": "minimal"}, {"measurement": "deviations in femoral blood flow, respiratory parameters, and Qtc interval", "setting": "[1]; common to both the control and treated groups", "value": "not considered treatment-related"}, {"measurement": "arterial blood pressure", "setting": "[1]; following administration of the low dose, only statistically significant difference vs vehicle", "value": "small increase"}, {"measurement": "arterial blood pressure effect at higher doses", "setting": "[1]; higher doses", "value": "not seen at higher doses"}, {"measurement": "duration of the arterial blood pressure effect", "setting": "[1]; low dose", "value": "approximately 15 minutes"}]}]}
